Data on 2 compounds can be found in ChEMBL document CHEMBL1806462, “Discovery of pyrrolo[2,1-f][1,2,4]triazine C6-ketones as potent, orally active p38α MAP kinase inhibitors” (Bioorg Med Chem Lett, 2011).

In data set [1] the test system is Liver microsomes. As to the kind of experiment: Clearance in human liver microsomes. In kind it is ADME, Microsome.
The test system of data set [2] is Rattus norvegicus. Nature of the data set: AUC (0 to 4 hrs) in rat at 10 mg/kg, po. Details: time < 4 hr, dose 10 mg/kg, route oral. In kind it is ADME, organism-based, Plasma. The note with it: in vivo.
The nature of data set [3]: Plasma concentration in rat at 10 mg/kg, po after 4 hrs. In kind it is ADME, organism-based. Details: dose 10 mg/kg, route oral.
Data set [4] in a line: Cmax in rat at 10 mg/kg, po. The note with it: in vivo. In kind it is ADME, organism-based. Further details: dose 10 mg/kg, route oral.

`COC(=O)NC(=O)c1ccc(C)c(Nc2ncnn3cc(C(=O)c4ccccc4)c(C)c23)c1` had a CL in data set [1] of 0.16 nmol/min/mg.

`Cc1ccc(C(=O)NC2CC2)cc1Nc1ncnn2cc(C(=O)c3ccccc3)c(C)c12` came in with a CL in data set [1] of 0.08 nmol/min/mg. For the same compound, the AUC in data set [2] was found to be 2300 ng·h/mL. The concentration at 4 h in data set [3] is 550 ng/mL. Also, the Cmax in data set [4] worked out at 752 ng/mL.

Usually AUC stands for concentration integrated over time. A lower AUC goes with low exposure. As usually defined, the Cmax is the peak of the concentration-time curve.
